The test system of the experiment is Plasmodium berghei. The experiment can be described thus: Luciferase/luciferin-expressing antifolate-resistant parasites were used to infect a culture of HepG2 cells that were pre-incubated with compounds. Infected hepatocytes emit light due to the luciferase reaction. Assay results are presented as the percent inhibition of light emission compared to control. […]. The format is functional. Conditions: sporozoite; for IC90: read-out: LUCIFERASE INFECTION ASSAY - IC90.

In general, IC50 refers to the concentration that gives 50% inhibition. What is called IC90 is the concentration at which the effect reaches the 90% level. As for `COc1cccc(-c2cnc3c(NC=O)cc(-c4ccc(OC)cc4OC)cn23)c1`, the IC90 was 0.664 µM. Moreover, the IC50 (HEPG2TOX_HILL_SLOPE 0.453, HEPG2TOX_R_SQUARED 0.602, PBLUC_HILL_SLOPE 0.932, PBLUC_R_SQUARED 0.666, read-out: LUCIFERASE INFECTION ASSAY - IC50) turned out to be 0.0629 µM.

Regarding `COc1ccc(-c2cnc3ccc(NCc4ccccn4)nn23)cc1OC`, the 90% effect concentration (IC90) turned out to be 5.88 µM. The IC50 (HEPG2TOX_HILL_SLOPE 0.427, HEPG2TOX_R_SQUARED 0.871, PBLUC_HILL_SLOPE 2.47, PBLUC_R_SQUARED 0.694, read-out: LUCIFERASE INFECTION ASSAY - IC50) stood at 2.41 µM.

For `COc1cccc(-c2cc(=O)[nH]c(Nc3nc(C)c4cc(C)ccc4n3)n2)c1`, the IC90 was over 8.84 µM. Besides, the IC50 (HEPG2TOX_HILL_SLOPE 0.454, HEPG2TOX_R_SQUARED 0.693, PBLUC_HILL_SLOPE 1.82, PBLUC_R_SQUARED 0.608, read-out: LUCIFERASE INFECTION ASSAY - IC50) amounted to 2.67 µM.

Regarding `Clc1ccc2c(NCc3coc(-c4cccs4)n3)ncnc2c1`, the IC90 is 6.02 µM. Also, the IC50 (HEPG2TOX_HILL_SLOPE 0.478, HEPG2TOX_R_SQUARED 0.927, PBLUC_HILL_SLOPE 2.76, PBLUC_R_SQUARED 0.49, read-out: LUCIFERASE INFECTION ASSAY - IC50) is 2.71 µM.

As for `CC(C)CC(=O)NNc1ccnc2cc(Cl)ccc12`, the concentration for an effect of 90% (IC90) came out at 4.29 µM. Further, for the setting “HEPG2TOX_HILL_SLOPE 0.439, HEPG2TOX_R_SQUARED 0.287, PBLUC_HILL_SLOPE 11, PBLUC_R_SQUARED 0.716, read-out: LUCIFERASE INFECTION ASSAY - IC50”, the IC50 is 3.51 µM.

As for `Cc1ccc(C2c3c(-c4cc(C)cc(C)c4O)n[nH]c3C(=O)N2CCCO)cc1` (stereo not drawn), the IC90 was over 8.43 µM. The IC50 (HEPG2TOX_HILL_SLOPE 0.468, HEPG2TOX_R_SQUARED 0.76, PBLUC_HILL_SLOPE 1.88, PBLUC_R_SQUARED 0.575, read-out: LUCIFERASE INFECTION ASSAY - IC50) was 5.49 µM.

In the case of `Cc1cc(/C=C/c2cc(C(=O)O)c3ccccc3n2)cc(C)c1OC(F)F`, the 90% effect concentration (IC90) turned out to be 3.87 µM. Also, the IC50 (HEPG2TOX_HILL_SLOPE 0.464, HEPG2TOX_R_SQUARED 0.656, PBLUC_HILL_SLOPE 13.4, PBLUC_R_SQUARED 0.624, read-out: LUCIFERASE INFECTION ASSAY - IC50) came out at 3.28 µM.

For the compound `CNc1ccccc1C(C)(C)c1cc(-c2ccc(C(C)C)cc2)n[nH]1`, the IC90 was over 10 µM. In addition, the IC50 (HEPG2TOX_HILL_SLOPE 0.485, HEPG2TOX_R_SQUARED 0.452, PBLUC_HILL_SLOPE 15.6, PBLUC_R_SQUARED 0.572, read-out: LUCIFERASE INFECTION ASSAY - IC50) was determined as 8.84 µM.

As to `Cc1ccc2nc(NC(=O)c3c(F)cccc3F)c(C(=O)NC3CCCC3)n2c1`, the IC90 amounted to 8.17 µM. For the same compound, the IC50 (HEPG2TOX_HILL_SLOPE 0.446, HEPG2TOX_R_SQUARED 0.792, PBLUC_HILL_SLOPE 1.53, PBLUC_R_SQUARED 0.752, read-out: LUCIFERASE INFECTION ASSAY - IC50) was found to be 1.95 µM.

`CC(C)(C)NC(=O)CN1CCN(Cc2ccc(-c3ccccc3C#N)cc2)CC1`: the IC90 was over 10 µM. Further, for the setting “HEPG2TOX_HILL_SLOPE 0.417, HEPG2TOX_R_SQUARED 0.524, read-out: LUCIFERASE INFECTION ASSAY - IC50”, the half-maximal inhibitory concentration (IC50) is over 10 µM.

`COc1ccc(-c2nnc(SCC(=O)c3cc(F)ccc3OC)[nH]2)cc1`: the IC90 was over 10 µM. For the same compound, where the note is “HEPG2TOX_HILL_SLOPE 0.475, HEPG2TOX_R_SQUARED 0.679, read-out: LUCIFERASE INFECTION ASSAY - IC50”, the IC50 is over 10 µM.

`CS(=O)(=O)c1ccc(S(=O)(=O)Oc2ccc(C3CCCCC3)cc2)cc1`: the IC90 was over 10 µM. Moreover, the IC50 (HEPG2TOX_HILL_SLOPE 0.47, HEPG2TOX_R_SQUARED 0.776, PBLUC_HILL_SLOPE 1, PBLUC_R_SQUARED 0.337, read-out: LUCIFERASE INFECTION ASSAY - IC50) worked out at 6.62 µM.

As to `Cc1nn(-c2ccccc2)c(Oc2ccccc2)c1/C=C1\C(=O)Nc2ccccc21`, the IC90 is 1.95 µM. In addition, the IC50 (HEPG2TOX_HILL_SLOPE 0.509, HEPG2TOX_R_SQUARED 0.727, PBLUC_HILL_SLOPE 1.23, PBLUC_R_SQUARED 0.54, read-out: LUCIFERASE INFECTION ASSAY - IC50) was determined as 0.328 µM.

As for `C=C(C)C[n+]1cn(C)c(-c2ccccc2)c1-c1ccccc1`, the IC90 was over 10 µM. Further, the IC50 (HEPG2TOX_HILL_SLOPE 0.508, HEPG2TOX_R_SQUARED 0.671, PBLUC_HILL_SLOPE 5.71, PBLUC_R_SQUARED 0.631, read-out: LUCIFERASE INFECTION ASSAY - IC50) was 7.55 µM.

In the case of `Cc1ccc(Sc2nc3ccccc3nc2NS(=O)(=O)c2ccc(F)cc2C)cc1`, the IC90 was over 10 µM. The half-inhibitory concentration (IC50) (HEPG2TOX_HILL_SLOPE 0.43, HEPG2TOX_R_SQUARED 0.741, read-out: LUCIFERASE INFECTION ASSAY - IC50) was over 10 µM.

As to `Cc1ccc(-c2nc(-c3ccccc3)nc(N3CCN(C)CC3)c2C#N)cc1`, the IC90 was over 8.93 µM. Further, where the note is “HEPG2TOX_HILL_SLOPE 0.407, HEPG2TOX_R_SQUARED 0.712, PBLUC_HILL_SLOPE 0.491, PBLUC_R_SQUARED 0.261, read-out: LUCIFERASE INFECTION ASSAY - IC50”, the IC50 was over 8.93 µM.

Regarding `O=C(Nc1nc(CN2CCOCC2)cs1)c1ccc(-c2ccccc2)cc1`, the 90% effect concentration (IC90) is over 10 µM. Further, the IC50 (HEPG2TOX_HILL_SLOPE 0.446, HEPG2TOX_R_SQUARED 0.661, PBLUC_HILL_SLOPE 0.824, PBLUC_R_SQUARED 0.624, read-out: LUCIFERASE INFECTION ASSAY - IC50) worked out at 0.817 µM.

Turning to `Oc1cccc(-c2cnc3cnc(-c4ccco4)cn23)c1`, the IC90 is over 11.9 µM. In addition, for the setting “HEPG2TOX_HILL_SLOPE 0.436, HEPG2TOX_R_SQUARED 0.582, PBLUC_HILL_SLOPE 2.53, PBLUC_R_SQUARED 0.573, read-out: LUCIFERASE INFECTION ASSAY - IC50”, the IC50 was found to be 6.72 µM.

Regarding `Cc1ccc(S(=O)(=O)Oc2c(C(C)C)cc(Nc3ccccc3)cc2C(C)C)cc1`, the IC90 is over 10 µM. Besides, the IC50 (HEPG2TOX_HILL_SLOPE 0.494, HEPG2TOX_R_SQUARED 0.437, PBLUC_HILL_SLOPE 0.599, PBLUC_R_SQUARED 0.52, read-out: LUCIFERASE INFECTION ASSAY - IC50) turned out to be 2.17 µM.

As to `O=C(Nc1nc(CN2CCOCC2)cs1)c1ccc(-c2ccc(Cl)cc2)s1`, the IC90 was over 10 µM. For the same compound, the IC50 (HEPG2TOX_HILL_SLOPE 0.481, HEPG2TOX_R_SQUARED 0.864, PBLUC_HILL_SLOPE 0.848, PBLUC_R_SQUARED 0.477, read-out: LUCIFERASE INFECTION ASSAY - IC50) came out at 0.826 µM.

As to `O=C1C=C/C(=N\Nc2ccc3ccccc3c2)c2cccnc21`, the 90% effect concentration (IC90) was 1.15 µM. For the same compound, the IC50 (HEPG2TOX_HILL_SLOPE 0.424, HEPG2TOX_R_SQUARED 0.848, PBLUC_HILL_SLOPE 2.17, PBLUC_R_SQUARED 0.805, read-out: LUCIFERASE INFECTION ASSAY - IC50) is 0.42 µM.

In the case of `CCN(CC)S(=O)(=O)c1cc(C(=O)c2c(-c3ccc(Cl)cc3)cc3ccccn23)ccc1F`, the IC90 is over 10 µM. For the same compound, the half-maximal inhibitory concentration (IC50) (HEPG2TOX_HILL_SLOPE 0.422, HEPG2TOX_R_SQUARED 0.219, read-out: LUCIFERASE INFECTION ASSAY - IC50) is over 10 µM.

Regarding `COCCCNc1nccc2nc(-c3cccc(C(C)C)c3)[nH]c12`, the IC90 is over 10 µM. In addition, under “HEPG2TOX_HILL_SLOPE 0.453, HEPG2TOX_R_SQUARED 0.728, PBLUC_HILL_SLOPE 2.13, PBLUC_R_SQUARED 0.522, read-out: LUCIFERASE INFECTION ASSAY - IC50”, the IC50 came out at 4.47 µM.

`COc1ccc(NS(=O)(=O)c2ccc(/C=C/C(=O)N(C)Cc3ccc(OC)c(OC)c3OC)cc2)cc1`: the IC90 is over 10 µM. Further, the IC50 (HEPG2TOX_HILL_SLOPE 0.416, HEPG2TOX_R_SQUARED 0.547, PBLUC_HILL_SLOPE 11.7, PBLUC_R_SQUARED 0.671, read-out: LUCIFERASE INFECTION ASSAY - IC50) was 9.46 µM.

Turning to `Cc1nn(Cc2ccccc2)c(Cl)c1C(=O)OC(C)C(=O)N1CCN(Cc2ccccc2)CC1` (stereo not drawn), the IC90 was over 10 µM. Also, the IC50 (HEPG2TOX_HILL_SLOPE 0.446, HEPG2TOX_R_SQUARED 0.649, read-out: LUCIFERASE INFECTION ASSAY - IC50) was over 10 µM.

With `Fc1cccc(-c2nc3ccnc(Nc4ccccc4)c3[nH]2)c1`, the IC90 is over 10 µM. Moreover, the IC50 (HEPG2TOX_HILL_SLOPE 0.405, HEPG2TOX_R_SQUARED 0.516, PBLUC_HILL_SLOPE 2.81, PBLUC_R_SQUARED 0.545, read-out: LUCIFERASE INFECTION ASSAY - IC50) came to 5.99 µM.

As to `N#Cc1cccc(CSc2nc(NC3CC3)c3ccccc3n2)c1`, the IC90 was over 10 µM. In addition, the IC50 (HEPG2TOX_HILL_SLOPE 0.422, HEPG2TOX_R_SQUARED 0.349, read-out: LUCIFERASE INFECTION ASSAY - IC50) was over 10 µM.

In the case of `C=CCN(c1ccccc1)S(=O)(=O)c1cccc(C(=O)Nc2ccnn2C(C)C2CC2)c1` (stereo not drawn), the IC90 was over 10 µM. Besides, where the note is “HEPG2TOX_HILL_SLOPE 0.485, HEPG2TOX_R_SQUARED 0.701, PBLUC_HILL_SLOPE 1.26, PBLUC_R_SQUARED 0.254, read-out: LUCIFERASE INFECTION ASSAY - IC50”, the IC50 is over 10 µM.

Take `COC(=O)Cc1[nH]n(-c2ccccc2)c(=O)c1C(C)=NCc1cccnc1`: the IC90 was over 9.06 µM. Moreover, the IC50 (HEPG2TOX_HILL_SLOPE 0.403, HEPG2TOX_R_SQUARED 0.018, read-out: LUCIFERASE INFECTION ASSAY - IC50) is over 9.06 µM.

For the origin of these results see ChEMBL document CHEMBL4483862, “Open-source discovery of chemical leads for next-generation chemoprotective antimalarials” (2018).
